In the NIST ThermoML archive (doi:10.1016/j.tca.2011.08.002):

Assay: refractive index (Na D-line) (dimensionless); xn = mol fraction of the nth substance listed
Settings: 101 kPa, Liquid, Standard Abbe refractometry

C1CCC(NC2CCCCC2)CC1 [N-cyclohexylcyclohexanamine] + CCC(C)O
refractive index
Settings | 288.15 K | 293.15 K | 298.15 K | 303.15 K | 308.15 K | 313.15 K | 318.15 K | 323.15 K
x2 = 0 | 1.48636 | 1.48416 | 1.48198 | 1.47978 | 1.47761 | 1.47562 | 1.47347 | 1.47134
x2 = 0.0996 | 1.48336 | 1.48112 | 1.47892 | 1.47667 | 1.47445 | 1.4722 | 1.46999 | 1.46783
x2 = 0.1998 | 1.47951 | 1.47724 | 1.47499 | 1.47273 | 1.47046 | 1.46818 | 1.46593 | 1.46374
x2 = 0.3 | 1.47497 | 1.47268 | 1.47041 | 1.46813 | 1.4658 | 1.46347 | 1.46119 | 1.45889
x2 = 0.3998 | 1.46961 | 1.46731 | 1.465 | 1.4627 | 1.46034 | 1.45797 | 1.45564 | 1.45336
x2 = 0.5011 | 1.4629 | 1.46057 | 1.45825 | 1.45591 | 1.45358 | 1.45115 | 1.44879 | 1.44656
x2 = 0.599 | 1.45516 | 1.45283 | 1.4505 | 1.44817 | 1.44577 | 1.44326 | 1.44089 | 1.43856
x2 = 0.6999 | 1.44554 | 1.44322 | 1.44088 | 1.43852 | 1.43617 | 1.43367 | 1.43125 | 1.42888
x2 = 0.7998 | 1.43365 | 1.43136 | 1.42906 | 1.42671 | 1.42437 | 1.42179 | 1.41937 | 1.41694
x2 = 0.8996 | 1.41884 | 1.41658 | 1.41432 | 1.412 | 1.40968 | 1.40723 | 1.40479 | 1.40233
x2 = 0.9494 | 1.41002 | 1.40783 | 1.40558 | 1.40329 | 1.40094 | 1.39851 | 1.39613 | 1.39357
